Measurements published in PubChem BioAssay (NCI).
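Step 1: Grow cells in 96-well plates. Step 2: Expose to compound for 48 hours at 5 concentrations. Step 3: Interpolate endpoints linearly; if unreached, use highest concentration. GI50 = concentration required for 50% inhibition of growth. The concentration for full growth arrest is given as TGI.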

Legend:
Test in all cases: NCI tumour cell line growth inhibition, 48 h
COLO 205 colon = tested on: COLO 205 colon
HCT-116 colon = tested on: HCT-116 colon
HS 578T breast = tested on: HS 578T breast
IGROV1 ovarian = tested on: IGROV1 ovarian
MDA-MB-231 breast = tested on: MDA-MB-231 breast
MOLT-4 leukemia = tested on: MOLT-4 leukemia
NCI-H23 lung = tested on: NCI-H23 lung
OVCAR-4 ovarian = tested on: OVCAR-4 ovarian
SR leukemia = tested on: SR leukemia
TK-10 renal = tested on: TK-10 renal

Compound	GI50 (COLO 205 colon) [µM]	TGI (COLO 205 colon) [µM]	GI50 (HCT-116 colon) [µM]	TGI (HCT-116 colon) [µM]	GI50 (HS 578T breast) [µM]	TGI (HS 578T breast) [µM]	GI50 (IGROV1 ovarian) [µM]	TGI (IGROV1 ovarian) [µM]	GI50 (MDA-MB-231 breast) [µM]	TGI (MDA-MB-231 breast) [µM]	GI50 (MOLT-4 leukemia) [µM]	TGI (MOLT-4 leukemia) [µM]	GI50 (NCI-H23 lung) [µM]	TGI (NCI-H23 lung) [µM]	GI50 (OVCAR-4 ovarian) [µM]	TGI (OVCAR-4 ovarian) [µM]	GI50 (SR leukemia) [µM]	TGI (SR leukemia) [µM]	GI50 (TK-10 renal) [µM]	TGI (TK-10 renal) [µM]
CC(C)N(Cc1ccc(F)cc1)c1ccc(CO)c(Cl)c1	1.03	7.17	0.0415	3.75	14.8	37.8	0.0479	0.266	12.4	25.6	11	32.6	3.31	21.8	0.116	1.7	12.8	32.5	0.0283	0.173
C#CCNC(=O)NC(CCCCNC(=O)OCc1ccccc1)C(=O)OCc1ccccc1 (stereo unspecified)		46.9		> 100		> 100		> 100		> 58.7		85.7		> 100		> 100		> 100		> 93
COc1ccc(-c2c3c(N)c4c(nc3nc3c2c(C)nn3-c2ccccc2)CCCC4)cc1	2.32	5.91	2.15	5.48	12.5	37.2	4.26	18.6	4.15	16.9	2.3	5.77			3.22	16.4	1.84	5.01		
N#C/C(=C\c1cc2ccc(N3CCC3)cc2oc1=O)C(=O)N(CC(=O)O)CC(=O)O	> 100	> 100	> 100	> 100	> 100	> 100	> 100	> 100	> 100	> 100	> 100	> 100	> 100	> 100	> 100	> 100	> 100	> 100	> 100	> 100
COc1cc(-c2ncn(/C=C\c3nnco3)n2)cc(C(F)(F)F)c1	0.0675	> 24.7	0.153	13.5	0.488	> 100	1.89	> 100	0.208	> 71.2	0.0411		0.132	> 64.8	0.211	> 72.4	0.021	> 100	0.726	23
CC(=O)OCC(CC[CH2][Sn]([Cl])([Cl])[c]1ccccc1)OC(C)=O (stereo unspecified)	17.3	31.2	18	31.9			25.5	68.8			22	63.7	19.5	39.4	16.4	31.4	10.7	50.4	27.5	> 100
Cn1nc(-c2ccccc2)c(C(=O)/C=C/c2ccc(Cl)cc2)c(N2CCOCC2)c1=O		3.79		3.96				16.1				4.63		8.25						25.8
O=C1C(Nc2cccc(O)c2)=C(Sc2ccccc2)C(=O)N1Cc1ccccc1	17	35.9	9.87	21.5	11.5	43.8					2.78	12.3	11.4	27.8	5.33	49.6	4.74	21.2		16.8
O=C(Cc1ccccc1)C(c1ccccc1)S(=O)(=O)c1ccccc1 (stereo unspecified)		> 100		> 100				> 100				> 100		> 100		> 100		> 100		> 100
Cc1ccc(C2=Nc3ccccc3SC(c3cccc4c3OCO4)C2)cc1 (stereo unspecified)		35.6						42.4				55.7		39.8		33.7				40.3
c1ccc2c(CNCCN3CCNCC3)c3ccccc3c(CNCCN3CCNCC3)c2c1	13.8	> 100	13.3	29.5			19.8	85.3	16	38.6	3.88	27.5	16	54.1	43.8	> 100			19.7	79.8
C[P+]1(c2ccccc2)CCCCC1		> 100						> 100				> 100		> 100		> 100				> 100
N#C/C(=C1\OC(=N)C(c2ccc(Cl)cc2Cl)C1=O)c1ccc(Cl)cc1Cl (stereo unspecified)		> 100		> 100				> 100				> 100		> 100		> 100				> 100
O=C(CO)C1CC2C=CC1C2 (stereo unspecified)		> 100		> 100				> 100				> 100		> 100		> 100				> 100
CC(N)CC(=O)O (stereo unspecified)		> 5000		> 5000				> 5000				> 5000		> 5000		> 5000		> 5000		> 5000
Cc1ccc(NC(=O)/C(C#N)=C/c2ccccc2)c(C)c1		> 100		> 100				> 100				> 100		> 100		> 100		> 100		> 100
C=CC[N+]1(CC)CCN=C1CCCCCCCCCCCCCCCCC (stereo unspecified)	0.651	2.29	0.294	1.15	0.432	1.57	0.237	0.475	0.763	2.19	1.07	3.51	0.119	0.589					1.1	2.44
CC(C)OC(=O)C1Cc2c([nH]c3ccccc23)C(c2ccccc2)N1 (stereo unspecified)		> 100		> 100				> 100				> 100		> 100		> 100				> 100
